Measurements taken from patent US20040043083A1, “Anticancer composition comprising sesquiterpenes isolated from resina ferulae” (priority 2000, published 2004).
In brackets after ≈: the same amount, converted by molar mass.

Experiments:
Assay type in all cases: cell-based
[1] = tested on: A549 (human lung cancer cell line); test: Inhibition of human cancer cell line proliferation (SRB method), A549; conditions: A549 cells, 48 hours
Protocol: (§1) A549 (human lung cancer cell line), SK-OV-3 (human ovary cancer cell line), SK-MEL-2 ([…] melanoma cancer cell line), XF498 (Human CNS cancer cell line) and HCT-15 (human colic cancer cell line) were obtained from NCI of U.S. A. and subjected to subculture. The inhibition of the cancer cell line proliferation was determined by the SRB (sulforhodamine B) method in accordance with the procedure described by Skehan, P. et al. (J. Nat'l. Canc. Inst., 82, p1107, 1990) as follows.
(§2) 1) Each of the subcultured cancer cell lines was collected from the surface of the culture vessel, treated with a trypsin-CDTA solution, diluted, and added to each wall of a 96-well plat bottom microplate (Falcon Co.) in an amount of 5×10^3 (A549, HCT-15), 1×10^4 (SK-MEL-2, XF498) or 2×10^4 (SK-OV-3) cells/well, followed by incubation in a CO2 incubator to anchor the cells to the bottom surface. Then the culture medium was removed from the plate with suction, a solution containing a predetermined amount of a test sample (test solution) dissolved in culture medium was added to each well; and the mixture was futher cultured for 48 hours.
(§3) 2) Thereafter, the culture medium was removed from the plate with suction, and […] of 10% TCA (trichloro acetic acid) was added to each well. The plate was allowed to stand at room temperature for one hour to fix the cells, and was washed several times with distilled water to completely remove excess TCA and then dried.
(§4) 3) Each well was treated with 100 μl of an SRB staining solution (0.4% suforhodamine in 1% acetic acid) for 30 minutes, washed several times with 1% acetic acid to remove the remaining staining solution, and dried at room temperature.
(§5) 4) After adding 100 μl of 10 mM Trisma base solution (unbuffered) to each well, the plate was shaken with a titer plate shaker for 10 minutes to elute the staining solution from the cells, and the absorbance thereof at 520 nm was determined with a microplate reader.
(§6) 5) The degree of cancer cell proliferation (% cell growth, i.e., reverse of anticancer activity) of the cell line treated with the test solution was calculated by the following numerical formula wherein C is the number of cells in a control group treated with a culture medium instead of the test solution; Tz, the number of cells at time zero; and T, the number of cells treated with the test solution calculated based on measurement. Numerical formula 1 was used when Tz>T, numerical formula 2, when Tz<T.
(§7) Numerical formula 1=[(T−Tz)/(C−Tz)]×100
(§8) Numerical formula 2=[(T−Tz)/Tz]×100
(§9) 6) The amount of the samples needed for achieving 50% inhibition of the inhibiting cancer cell proliferation (ED50) was calculated from the observed degree of cell proliferation at various concentrations of the sample using the data regression of LOTUS program.

[2] = tested on: SK-OV-3 (human ovary cancer cell line); test: Inhibition of human cancer cell line proliferation (SRB method), SK-OV-3; conditions: SK-OV-3 cells, 48 hours
Protocol: as §1, §2, §3, §4, §5, §6, §7, §8, §9

[3] = tested on: SK-MEL-2 (human melanoma cancer cell line); test: Inhibition of human cancer cell line proliferation (SRB method), SK-MEL-2; conditions: SK-MEL-2 cells, 48 hours
Protocol: as §1, §2, §3, §4, §5, §6, §7, §8, §9

[4] = tested on: XF498 (human CNS cancer cell line); test: Inhibition of human cancer cell line proliferation (SRB method), XF498; conditions: XF498 cells, 48 hours
Protocol: as §1, §2, §3, §4, §5, §6, §7, §8, §9

[5] = tested on: HCT-15 (human colic cancer cell line); test: Inhibition of human cancer cell line proliferation (SRB method), HCT-15; conditions: HCT-15 cells, 48 hours
Protocol: as §1, §2, §3, §4, §5, §6, §7, §8, §9

SMILES	ED50 A549 [1]	ED50 SK-OV-3 [2]	ED50 SK-MEL-2 [3]	ED50 XF498 [4]	ED50 HCT-15 [5]
C=C1CC[C@@H](O)C(C)(C)C1CC/C(C)=C/COc1ccc2ccc(=O)oc2c1 (stereo partly drawn) [Compound 4, farnesiferol B]	7.2 mg/L (≈ 18.8 µM)	10.0 mg/L (≈ 26.1 µM)	7.1 mg/L (≈ 18.6 µM)	7.1 mg/L (≈ 18.6 µM)	4.3 mg/L (≈ 11.2 µM)
C/C(=C\COc1ccc2ccc(=O)oc2c1)CC/C=C(\C)CCC(O)C(C)(C)O (stereo not drawn) [Compound 2, karatavicinol]	5.6 mg/L (≈ 14 µM)	11.6 mg/L (≈ 29 µM)	5.7 mg/L (≈ 14.2 µM)	7.5 mg/L (≈ 18.7 µM)	7.0 mg/L (≈ 17.5 µM)
CC(C)=CCC/C(C)=C/CC/C(C)=C/COc1ccc2ccc(=O)oc2c1 [Compound 3, umbelliprenin]	8.9 mg/L (≈ 24.3 µM)	9.4 mg/L (≈ 25.6 µM)	6.7 mg/L (≈ 18.3 µM)	5.3 mg/L (≈ 14.5 µM)	4.1 mg/L (≈ 11.2 µM)
C/C(=C\COc1ccc2ccc(=O)oc2c1)CC[C@@H]1C(C)(C)[C@H]2CC[C@]1(C)O2 [Compound 5, farnesiferol C]	4.2 mg/L (≈ 11 µM)	7.2 mg/L (≈ 18.8 µM)	3.9 mg/L (≈ 10.2 µM)	5.4 mg/L (≈ 14.1 µM)	4.3 mg/L (≈ 11.2 µM)
N.N.[Cl][Pt][Cl] [Cisplastine, reference compound]	1.8 mg/L	1.5 mg/L	1.2 mg/L	1.4 mg/L	3.2 mg/L
CC(C)=C1CCC(C)C(C)(COc2ccc3ccc(=O)oc3c2)C1CCC(=O)O (stereo not drawn) [Compound 1, galbanic acid]	8.9 mg/L (≈ 22.3 µM)	14.5 mg/L (≈ 36.4 µM)	12.3 mg/L (≈ 30.9 µM)	13.0 mg/L (≈ 32.6 µM)	9.7 mg/L (≈ 24.3 µM)
